Read-outs that look alike come from different tables or passages of the source.
How the values were obtained:
[1] = system: TNF-α levels in LPS-stimulated human whole blood; test: LPS-stimulation of human whole blood (TNF-α levels); format: cell-based; settings: IC50 range, TNF-α after LPS 100 ng/ml, 6 hours
Description: Whole blood is taken by venous puncture using heparinised vacutainers (Becton Dickinson) and diluted in an equal volume of RPMI1640 tissue culture media (Sigma). 100 μl is then plated in V-bottomed 96 well tissue culture treated plates. 2 Hours after the addition of the inhibitor in 100 μl of RPMI1640 media, the blood is stimulated with LPS (E. Coli strain 005:B5, Sigma) at a final concentration of 100 ng/ml and incubated at 37° C. in 5% CO2 for 6 hours. TNF-α levels are measured from cell-free supernatants by sandwich ELISA (R&D Systems #QTA00B).

Hut78 (hCE-1 -ve) cells = test: Proliferation assay, Hut78 cells; format: cell-based, human; settings: for IC50: Homo sapiens, Hut78, 72 hours, WST-1, read-out: Proliferation assay: Inhibition of Hut78 (hCE-1 -ve) cell proliferation IC50
Description: (§1) Cells are seeded in 96 well tissue culture plates (1 well=30 mm^2) at an appropriate density (2000 cells per well for U937 cells, 2250 cells per well for HUT-78 and MINO cells) in 50 μl of culture medium (see below for details). 24 Hours later 50 μl of the compound prepared in the same medium is added as 3 fold dilutions to give final concentrations in the range 5-10,000 nM (n=6 for each concentration). The plates are then incubated at 37° C., 5% CO2 for 72 hours. Cell proliferation is assessed using WST-1 (a metabolic indicator dye, Roche Cat no. 11644807001) according to the manufacturer's instructions. The results are calculated as a percentage of vehicle response and plotted as a dose-response curve. IC50 values represent the concentration of compound that inhibits the vehicle response by 50%.
(§2) Culture medium for U937 and RUT-78 cells is RPMI1640 (Sigma R0883) with 10% heat inactivated fetal calf serum (Hyclone SH30071, Perbio), plus 2 mM glutamine (Sigma G7513) and 50 U/ml penicillin and streptomycin sulphate (Sigma P0781). MINO cell culture medium is as for U937 and HUT-78 but supplemented with sodium pyruvate (Sigma S8636) to a final concentration of 1 mM.

U937 (hCE-1 +ve) cells = test: Proliferation assay, U937 cells; format: cell-based, human; settings: for IC50: Homo sapiens, U-937, U937, 72 hours, WST-1, read-out: Proliferation assay: Inhibition of U937 (hCE-1 +ve) cell proliferation IC50
Description: as §1, §2

[2] = target: T1, human recombinant his-tagged HSP90α (Homo sapiens, UniProt P07900); test: HSP90 enzyme assay (HTRF, competition with biotinylated Geldanamycin); format: binding
T1 construct: purchased Prospec Technogene #HSP90
How it was run: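 HTRF competition: compounds (5000 to 0.3 nM, 0.5% DMSO) displace 40 nM biotinylated geldanamycin from 40 nM his-tagged HSP90α. Binding was read via Eu-cryptate anti-his/streptavidin-XL FRET after 20 h at room temperature in Hepes pH 7.3 buffer. IC50 was fitted against controls.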

[3] = system: TNFα release from LPS stimulated THP-1 (hCE-1 +ve) cells; test: LPS-stimulation of THP-1 cells (TNF-α release); format: cell-based, human
Description: THP-1 cells are plated in […] at a density of 4×10^4 cells/well in V-bottomed 96 well tissue culture treated plates and incubated at 37° C. in 5% CO2 for 16 hours. 2 Hours after the addition of the inhibitor in 100 μl of tissue culture media, the cells are stimulated with LPS (E. Coli strain 005:B5, Sigma) at a final concentration of 1 μg/ml and incubated at 37° C. in 5% CO2 for 6 hours. TNF-α levels are measured from cell-free supernatants by sandwich ELISA (R&D Systems #QTA00B).

[4] = IC50 range, read-out: Enzyme Assay
[5] = compound as drawn (ester for the ester compound), read-out: Enzyme assay: Inhibition of Hsp90 (IC50 nM)
[6] = Homo sapiens, THP-1, IC50 range, TNF-α after LPS 1 μg/ml, 6 hours, read-out: THP-1 Assay
[7] = Homo sapiens, THP-1, read-out: THP-1 assay: Inhibition of TNFα release from LPS stimulated THP-1 (hCE-1 +ve) cells (IC50 nM)

| Molecule | IC50 ([1]; Homo sapiens) | IC50 [2, 4] | IC50 [3, 6] | other results |
| --- | --- | --- | --- | --- |
| CC(C)c1cc(C(=O)N2CCC(N[C@@H](COC(C)(C)C)C(=O)OC3CCCC3)CC2)c(O)cc1O [Example 17, cyclopentyl O-tert-butyl-N-(1-{[2,4-dihydroxy-5-(propan-2-yl)phenyl]carbonyl}piperidin-4-yl)-L-serinate] | 100 to 1000 nM | < 100 nM | < 100 nM | IC50 (Hut78 (hCE-1 -ve) cells): 760 nM; Ratio of IC50's of Hut78 to U937 cells (Hut78 (hCE-1 -ve) cells): 28; Potency in Hut78 cells (Hut78 (hCE-1 -ve) cells; in words, Hut78 cells do not contain hCE-1): significantly weaker; IC50 (U937 (hCE-1 +ve) cells): 27 nM; Potency in U937 cells compared with CHR-7310 (U937 (hCE-1 +ve) cells; in words, relative to CHR-7310): significantly more potent; IC50 ([2]; acid (carboxylic acid of the ester drawn), read-out: Enzyme assay: Inhibition of Hsp90 (IC50 nM)): 7 nM; IC50 [2, 5]: 42 nM; IC50 in the Hsp90 binding assay compared with CHR-7310 ([2]; in words, relative to non-ester parent CHR-7310): weaker; IC50 [3, 7]: 45 nM; Potency in THP-1 cells compared with CHR-7310 ([3]; in words, relative to CHR-7310): significantly more potent |
| CC(C)C[C@H](NCc1cccc(CN(C)C(=O)c2cc(C(C)C)c(O)cc2O)c1)C(=O)OC1CCCC1 [Example 66, cyclopentyl N-(3-{[{[2,4-dihydroxy-5-(propan-2-yl)phenyl]carbonyl}(methyl)amino]methyl}benzyl)-L-leucinate] | > 1000 nM | < 100 nM | 100 to 1000 nM |  |
| CC(C)c1cc(C(=O)N2Cc3ccc(CNC4(C(=O)OC5CCCC5)CCCC4)cc3C2)c(O)cc1O [Example 60, cyclopentyl 1-{[(2-{[2,4-dihydroxy-5-(propan-2-yl)phenyl]carbonyl}-2,3-dihydro-1H-isoindol-5-yl)methyl]amino}cyclopentanecarboxylate] | 100 to 1000 nM | < 100 nM | < 100 nM |  |
| CC(C)C[C@@H](NCC1CCN(C(=O)c2cc(C(C)C)c(O)cc2O)CC1)C(=O)OC1CCCC1 [Example 28, cyclopentyl N-[(1-{[2,4-dihydroxy-5-(propan-2-yl)phenyl]carbonyl}piperidin-4-yl)methyl]-D-leucinate] | 100 to 1000 nM | < 100 nM | 100 to 1000 nM |  |
| CC(C)C[C@H](NCCCc1ccc2c(c1)CN(C(=O)c1cc(C(C)C)c(O)cc1O)C2)C(=O)OC1CCCC1 [Example 64, cyclopentyl N-[3-(2-{[2,4-dihydroxy-5-(propan-2-yl)phenyl]carbonyl}-2,3-dihydro-1H-isoindol-5-yl)propyl]-L-leucinate] | 100 to 1000 nM | < 100 nM | < 100 nM |  |
| CC(C)c1cc(C(=O)N2Cc3ccc(CN[C@@H](C)C(=O)OC(C)(C)C)cc3C2)c(O)cc1O [Example 56, tert-butyl N-[(2-{[2,4-dihydroxy-5-(propan-2-yl)phenyl]carbonyl}-2,3-dihydro-1H-isoindol-5-yl)methyl]-L-alaninate] | > 1000 nM | 100 to 1000 nM | > 1000 nM |  |
| CC(C)c1cc(C(=O)N(C)Cc2ccc(CCNC(C)(C)C(=O)OC3CCCC3)cc2)c(O)cc1O [Example 73, cyclopentyl N-[2-(4-{[{[2,4-dihydroxy-5-(propan-2-yl)phenyl]carbonyl}(methyl)amino]methyl}phenyl)ethyl]-2-methylalaninate] | 100 to 1000 nM | < 100 nM | 100 to 1000 nM |  |
| CC(C)c1cc(C(=O)N2Cc3ccc(CCNC4(C(=O)OC5CCCC5)CCCC4)cc3C2)c(O)cc1O [Example 63, cyclopentyl 1-{[2-(2-{[2,4-dihydroxy-5-(propan-2-yl)phenyl]carbonyl}-2,3-dihydro-1H-isoindol-5-yl)ethyl]amino}cyclopentanecarboxylate] | 100 to 1000 nM | < 100 nM | 100 to 1000 nM |  |
| CC(C)C[C@H](NC[C@@H]1CCCN1C(=O)c1cc(C(C)C)c(O)cc1O)C(=O)OC1CCCC1 [Example 75, cyclopentyl N-{[(2S)-1-{[2,4-dihydroxy-5-(propan-2-yl)phenyl]carbonyl}pyrrolidin-2-yl]methyl}-L-leucinate] | > 1000 nM | > 1000 nM | > 1000 nM |  |
| cyclopentyl N-(1-{[2,4-dihydroxy-5-(propan-2-yl)phenyl]carbonyl}piperidin-4-yl)-L-valinate [Example 3] |  | < 100 nM |  | IC50 [1]: > 1000 nM; IC50 ([3]; IC50 range, TNF-α after LPS 1 μg/ml, 6 hours, read-out: THP-1 Assay): > 1000 nM |
| CC1CCN(C(=O)c2cc(C(C)C)c(O)cc2O)CC1 [CHR-7310, reference compound] |  |  |  | IC50 (Hut78 (hCE-1 -ve) cells): 145 nM; Ratio of IC50's of Hut78 to U937 cells (Hut78 (hCE-1 -ve) cells): ~1; IC50 (U937 (hCE-1 +ve) cells): 200 nM; IC50 [2, 5]: 8 nM; IC50 [3, 7]: 476 nM |
| CC(C)c1cc(C(=O)N2CCC(N[C@@H](C)C(=O)OC3CCCC3)CC2)c(O)cc1O [Example 5, cyclopentyl N-(1-{[2,4-dihydroxy-5-(propan-2-yl)phenyl]carbonyl}piperidin-4-yl)-L-alaninate] | 100 to 1000 nM | < 100 nM | 100 to 1000 nM |  |
| CC(C)c1cc(C(=O)N2CCC(CN[C@@H](C)C(=O)OC3CCCC3)CC2)c(O)cc1O [Example 22, cyclopentyl N-[(1-{[2,4-dihydroxy-5-(propan-2-yl)phenyl]carbonyl}piperidin-4-yl)methyl]-L-alaninate] | < 100 nM | < 100 nM | < 100 nM |  |
| CCCC[C@H](NC1CCN(C(=O)c2cc(C(C)C)c(O)cc2O)CC1)C(=O)OC1CCCC1 [Example 10, cyclopentyl N-(1-{[2,4-dihydroxy-5-(propan-2-yl)phenyl]carbonyl}piperidin-4-yl)-L-norleucinate] | > 1000 nM | < 100 nM | 100 to 1000 nM |  |
| CC(C)c1cc(C(=O)N(C)Cc2ccc(CN[C@H](C(=O)OC3CCCC3)c3ccccc3)cc2)c(O)cc1O [Example 71, cyclopentyl (2S)-[(4-{[{[2,4-dihydroxy-5-(propan-2-yl)phenyl]carbonyl}(methyl)amino]methyl}benzyl)amino](phenyl)ethanoate] | 100 to 1000 nM | 100 to 1000 nM | 100 to 1000 nM |  |
| CC(C)C[C@H](NCCc1ccc2c(c1)CN(C(=O)c1cc(C(C)C)c(O)cc1O)C2)C(=O)OC(C)(C)C [Example 62, tert-butyl N-[2-(2-{[2,4-dihydroxy-5-(propan-2-yl)phenyl]carbonyl}-2,3-dihydro-1H-isoindol-5-yl)ethyl]-L-leucinate] | > 1000 nM | < 100 nM | 100 to 1000 nM |  |
| CC(C)C[C@H](NC1CCN(C(=O)c2cc(C(C)C)c(O)cc2O)C1)C(=O)OC1CCCC1 (stereo partly drawn) [Example 20, cyclopentyl N-(1-{[2,4-dihydroxy-5-(propan-2-yl)phenyl]carbonyl}pyrrolidin-3-yl)-L-leucinate] | > 1000 nM | < 100 nM | > 1000 nM |  |
| CC(C)C[C@H](NC[C@H]1CCCN1C(=O)c1cc(C(C)C)c(O)cc1O)C(=O)OC1CCCC1 [Example 74, cyclopentyl N-{[(2R)-1-{[2,4-dihydroxy-5-(propan-2-yl)phenyl]carbonyl}pyrrolidin-2-yl]methyl}-L-leucinate] | > 1000 nM | 100 to 1000 nM | > 1000 nM |  |

From patent US9321718B2 (CHROMA THERAPEUTICS LTD., priority 2010, dated 2016)
